Test results as given in ChEMBL document CHEMBL1148814, “Novel class of quinone-bearing polyamines as multi-target-directed ligands to combat Alzheimer's disease” (J Med Chem, 2007).
Active and inactive are the calls of the source. The calls are words filed in the database; no cut-off is given here.

How the values were obtained:
Cholinesterase = Cholinesterase (Homo sapiens, UniProt P06276)
Description: Inhibition of human recombinant butyrylcholinesterase

Acetylcholinesterase = Acetylcholinesterase (Homo sapiens, UniProt P22303)
Description: Inhibition of human recombinant acetylcholinesterase

SH-SY5Y [1] = assay: Antioxidant activity in human SHSY5Y cells overexpressing NQO1 assessed as increase in tert-butyl hydroperoxide evoked-intracellular ROS formation at 3 uM after 24 hrs relative to control; type: functional
[2] = biological target: NAD(P)H dehydrogenase [quinone] 1 (Homo sapiens) (UniProt P15559); assay: Activity of NQO1 enzyme
SH-SY5Y [3] = assay: Antioxidant activity in human SHSY5Y cells overexpressing NQO1 assessed as increase in tert-butyl hydroperoxide evoked-intracellular ROS formation at 0.1 uM after 24 hrs relative to control; type: functional
SH-SY5Y [4] = assay: Antioxidant activity in human SHSY5Y cells overexpressing NQO1 assessed as increase in tert-butyl hydroperoxide evoked-intracellular ROS formation at 1 uM after 24 hrs relative to control; type: functional
SH-SY5Y [5] = assay: Antioxidant activity in human SHSY5Y cells overexpressing NQO1 assessed as increase in tert-butyl hydroperoxide evoked-intracellular ROS formation at 0.3 uM after 24 hrs relative to control; type: functional

Chain of Cholinesterase (P06276 whole entry): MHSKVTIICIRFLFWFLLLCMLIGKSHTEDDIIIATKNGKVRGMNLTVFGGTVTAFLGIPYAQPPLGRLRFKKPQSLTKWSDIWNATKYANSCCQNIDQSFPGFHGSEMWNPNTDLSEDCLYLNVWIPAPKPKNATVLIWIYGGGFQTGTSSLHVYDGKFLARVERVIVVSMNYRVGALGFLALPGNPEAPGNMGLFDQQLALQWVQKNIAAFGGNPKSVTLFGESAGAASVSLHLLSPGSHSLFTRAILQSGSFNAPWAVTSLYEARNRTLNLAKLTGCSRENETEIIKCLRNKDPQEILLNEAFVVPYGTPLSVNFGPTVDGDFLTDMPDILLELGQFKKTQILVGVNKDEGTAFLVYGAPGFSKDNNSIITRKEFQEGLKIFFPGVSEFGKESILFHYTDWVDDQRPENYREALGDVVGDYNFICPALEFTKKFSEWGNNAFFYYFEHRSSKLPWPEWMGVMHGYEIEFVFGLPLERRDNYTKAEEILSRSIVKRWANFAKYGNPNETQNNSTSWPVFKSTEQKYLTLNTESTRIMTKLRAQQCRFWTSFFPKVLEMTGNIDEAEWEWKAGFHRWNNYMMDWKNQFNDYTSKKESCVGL
Chain of Acetylcholinesterase (P22303 whole entry): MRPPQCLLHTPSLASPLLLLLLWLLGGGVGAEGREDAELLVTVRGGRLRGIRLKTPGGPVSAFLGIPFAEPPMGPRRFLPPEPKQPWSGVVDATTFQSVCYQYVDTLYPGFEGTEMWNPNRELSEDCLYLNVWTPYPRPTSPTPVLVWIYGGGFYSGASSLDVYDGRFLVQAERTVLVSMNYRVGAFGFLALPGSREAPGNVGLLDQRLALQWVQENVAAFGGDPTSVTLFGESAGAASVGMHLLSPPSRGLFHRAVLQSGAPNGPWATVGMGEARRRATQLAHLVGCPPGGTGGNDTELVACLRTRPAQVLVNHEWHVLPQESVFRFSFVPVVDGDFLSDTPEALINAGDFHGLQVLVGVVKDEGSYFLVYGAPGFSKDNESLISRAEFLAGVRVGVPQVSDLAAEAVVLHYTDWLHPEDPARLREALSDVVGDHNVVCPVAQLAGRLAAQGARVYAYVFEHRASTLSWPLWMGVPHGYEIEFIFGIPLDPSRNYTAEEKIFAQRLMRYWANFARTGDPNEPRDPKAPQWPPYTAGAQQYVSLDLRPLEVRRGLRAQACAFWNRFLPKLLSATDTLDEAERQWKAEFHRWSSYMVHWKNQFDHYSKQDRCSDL
Chain of NAD(P)H dehydrogenase [quinone] 1 (Homo sapiens) (P15559 whole entry): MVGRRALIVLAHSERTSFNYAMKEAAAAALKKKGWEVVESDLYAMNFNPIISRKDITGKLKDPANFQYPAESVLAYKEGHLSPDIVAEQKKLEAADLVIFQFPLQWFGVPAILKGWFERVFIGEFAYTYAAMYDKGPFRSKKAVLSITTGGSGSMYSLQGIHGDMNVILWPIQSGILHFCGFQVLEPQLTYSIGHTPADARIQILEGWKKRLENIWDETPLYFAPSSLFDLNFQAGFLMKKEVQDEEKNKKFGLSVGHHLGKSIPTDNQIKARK

Row | SMILES | IC50 (Cholinesterase) [nM] | IC50 (Acetylcholinesterase) [nM] | further results
1 | CCN(CCCCCCNC1=CC(=O)C(NCCCCCCN(CC)Cc2ccco2)=CC1=O)Cc1ccco1 | 3410 | – | –
2 | CCN(Cc1ccccc1OC)C(=O)CCCCCNC1=CC(=O)C(NCCCCCC(=O)N(CC)Cc2ccccc2OC)=CC1=O | 18500 | 11600 | –
3 | CCN(CCCCCCNC1=C(c2ccccc2)C(=O)C(NCCCCCCN(CC)Cc2ccccc2OC)=C(c2ccccc2)C1=O)Cc1ccccc1OC | 2250 | 123 | –
4 | CCN(CCCNC1=CC(=O)C(NCCCN(CC)Cc2ccccc2OC)=CC1=O)Cc1ccccc1OC | 9840 | – | –
5 | CCN(CCCCCCNC1=CC(=O)C(NCCCCCCN(CC)Cc2ccccc2C)=CC1=O)Cc1ccccc1C | 2080 | 71.9 | –
6 | CCN(CCCCCCNC1=CC(=O)C(NCCCCCCN(CC)Cc2ccccc2[N+](=O)[O-])=CC1=O)Cc1ccccc1[N+](=O)[O-] | 67100 | – | –
7 | CCN(CCCCCCNc1ccc(NCCCCCCN(CC)Cc2ccccc2OC)cc1)Cc1ccccc1OC | 505 | 42.5 | Activity (SH-SY5Y [1]): 49.54%; Activity [2]: inactive; Activity (SH-SY5Y [3]): 54.2%; Activity (SH-SY5Y [4]): 51.35%; Activity (SH-SY5Y [5]): 50.45%
8 | CCN(CCCCCCNC1=CC(=O)C(NCCCCCCN(CC)Cc2cccc(OC)c2)=CC1=O)Cc1cccc(OC)c1 | 1690 | – | –
9 | CCN(CCCCCCNC1=C(Br)C(=O)C(NCCCCCCN(CC)Cc2ccccc2OC)=C(Br)C1=O)Cc1ccccc1OC | 696 | – | Activity (SH-SY5Y [1]): 42.12%; Activity (SH-SY5Y [3]): 50.51%; Activity (SH-SY5Y [4]): 50.43%; Activity (SH-SY5Y [5]): 52.35%
10 | CCN(CCCCCNC1=CC(=O)C(NCCCCCN(CC)Cc2ccccc2OC)=CC1=O)Cc1ccccc1OC | 3460 | 2.36 | –
11 | CCN(CCCCCCNC1=CC(=O)C(NCCCCCCN(CC)Cc2ccccn2)=CC1=O)Cc1ccccn1 | 2470 | 125 | –
12 | CCN(CCCCNC1=CC(=O)C(NCCCCN(CC)Cc2ccccc2OC)=CC1=O)Cc1ccccc1OC | 12800 | 13.6 | –
13 | CCN(CCCCCCNC1=CC(=O)C(NCCCCCCN(CC)Cc2ccncc2)=CC1=O)Cc1ccncc1 | 70100 | 192 | –
14 | CCN(CCCCCCNC1=CC(=O)C(NCCCCCCN(CC)Cc2ccc(OC)cc2)=CC1=O)Cc1ccc(OC)cc1 | 2390 | – | –
15 | CCN(CCCCCCNC1=CC(=O)C(NCCCCCCN(CC)Cc2ccccc2OC)=CC1=O)Cc1ccccc1OC [MEMOQUIN] | – | – | Activity (SH-SY5Y [1]): 30.5%; Activity (SH-SY5Y [3]): 53%; Activity (SH-SY5Y [4]): 40.25%; Activity (SH-SY5Y [5]): 49.94%
16 | CCN(CCCCCCNC1=CC(=O)C(NCCCCCCN(CC)CCc2ccccc2OC)=CC1=O)CCc1ccccc1OC | 518 | 17.3 | –
17 | CCN(CCCCCCNC1=C(Cl)C(=O)C(NCCCCCCN(CC)Cc2ccccc2OC)=C(Cl)C1=O)Cc1ccccc1OC | 800 | 3.05 | –
18 | CCN(CCCCCCNC1=CC(=O)C(NCCCCCCN(CC)Cc2cccs2)=CC1=O)Cc1cccs1 | 2790 | 60.4 | –
19 | CCN(CCCCCCNC1=CC(=O)C(NCCCCCCN(CC)Cc2cccnc2)=CC1=O)Cc1cccnc1 | 11900 | 133 | –
20 | COc1ccccc1CN(CCCCCCNC1=CC(=O)C(NCCCCCCN(Cc2ccccc2OC)C(C)C)=CC1=O)C(C)C | 660 | 12.9 | –
